# Laboratory results from the supplement of paper PMC10307832.
# Legend:
# Experiment in all cases: relative viability (nuclei count vs DMSO), 5 days (fraction); higher = more cells survive
# COR-L23 = tested on: COR-L23
# Procedure, shortened: (§1)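 Nuclei were stained with Hoechst during a one-step fixation (final 0.05% Triton X-100, 1% formaldehyde, 1 ug/ml Hoechst) carried out 5 days after dosing, then counted on 4× images. The cells, lung cancer lines in 1536-well plates, had been dosed by pin tool the day after seeding with one drug alone or a fixed anchor-drug dose plus five library-drug doses (not always all listed) in √10 steps. Relative viability is the nuclei count in treated wells divided by that in vehicle wells, and each value is the median of duplicate plates.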
# NCI-H2126 = tested on: NCI-H2126
# Procedure, shortened: as §1
# SW 1573 = tested on: SW 1573
# Procedure, shortened: as §1
# RERF-LC-KJ = tested on: RERF-LC-KJ
# Procedure, shortened: as §1
# NCI-H522 = tested on: NCI-H522
# Procedure, shortened: as §1
# NCI-H1355 = tested on: NCI-H1355
# Procedure, shortened: as §1
# NCI-H838 = tested on: NCI-H838
# Procedure, shortened: as §1
# NCI-H23 = tested on: NCI-H23
# Procedure, shortened: as §1
# SW 900 = tested on: SW 900
# Procedure, shortened: as §1
# H3255 = tested on: H3255
# Procedure, shortened: as §1
# UMC-11 = tested on: UMC-11
# Procedure, shortened: as §1
# NCI-H1915 = tested on: NCI-H1915
# Procedure, shortened: as §1
# NCI-H1755 = tested on: NCI-H1755
# Procedure, shortened: as §1
# HCC-827 = tested on: HCC-827
# Procedure, shortened: as §1
# NCI-H3122 = tested on: NCI-H3122
# Procedure, shortened: as §1
# EMC-BAC-2 = tested on: EMC-BAC-2
# Procedure, shortened: as §1
# NCI-H520 = tested on: NCI-H520
# Procedure, shortened: as §1
# EKVX = tested on: EKVX
# Procedure, shortened: as §1
# NCI-H2405 = tested on: NCI-H2405
# Procedure, shortened: as §1
# NCI-H661 = tested on: NCI-H661
# Procedure, shortened: as §1
# HCC-15 = tested on: HCC-15
# Procedure, shortened: as §1
# LC-2-ad = tested on: LC-2-ad
# Procedure, shortened: as §1
# HARA = tested on: HARA
# Procedure, shortened: as §1
# LCLC-97TM1 = tested on: LCLC-97TM1
# Procedure, shortened: as §1
smiles,measurement,setting,value
Nc1cccc2c1CN(C1CCC(=O)NC1=O)C2=O (configuration not stated) [Lenalidomide] + O=C(CCCCCCC(=O)Nc1ccccc1)NO [Vorinostat] (partner 1 µM),relative viability,COR-L23; first compound 0.253 µM,0.542
same,relative viability,COR-L23; first compound 0.8 µM,0.408
same,relative viability,COR-L23; first compound 2.53 µM,0.498
same,relative viability,COR-L23; first compound 8 µM,0.509
same,relative viability,NCI-H2126; first compound 0.253 µM,0.771
same,relative viability,NCI-H2126; first compound 0.8 µM,0.747
same,relative viability,NCI-H2126; first compound 2.53 µM,0.832
same,relative viability,NCI-H2126; first compound 8 µM,0.658
same,relative viability,SW 1573; first compound 0.253 µM,0.456
same,relative viability,SW 1573; first compound 0.8 µM,0.822
same,relative viability,SW 1573; first compound 2.53 µM,0.974
same,relative viability,SW 1573; first compound 8 µM,0.759
same,relative viability,RERF-LC-KJ; first compound 0.253 µM,0.574
same,relative viability,RERF-LC-KJ; first compound 0.8 µM,0.605
same,relative viability,RERF-LC-KJ; first compound 2.53 µM,0.71
same,relative viability,RERF-LC-KJ; first compound 8 µM,0.686
same,relative viability,NCI-H522; first compound 0.253 µM,0.767
same,relative viability,NCI-H522; first compound 0.8 µM,0.86
same,relative viability,NCI-H522; first compound 2.53 µM,1.09
same,relative viability,NCI-H522; first compound 8 µM,0.781
same,relative viability,NCI-H1355; first compound 0.253 µM,0.608
same,relative viability,NCI-H1355; first compound 0.8 µM,0.455
same,relative viability,NCI-H1355; first compound 2.53 µM,0.707
same,relative viability,NCI-H1355; first compound 8 µM,0.495
same,relative viability,NCI-H838; first compound 0.253 µM,0.732
same,relative viability,NCI-H838; first compound 0.8 µM,0.692
same,relative viability,NCI-H838; first compound 2.53 µM,0.712
same,relative viability,NCI-H838; first compound 8 µM,0.697
same,relative viability,NCI-H23; first compound 0.253 µM,0.511
same,relative viability,NCI-H23; first compound 2.53 µM,0.747
same,relative viability,NCI-H23; first compound 8 µM,0.407
same,relative viability,SW 900; first compound 2.53 µM,0.679
same,relative viability,SW 900; first compound 8 µM,0.429
same,relative viability,H3255; first compound 0.253 µM,0.716
same,relative viability,H3255; first compound 0.8 µM,0.515
same,relative viability,H3255; first compound 2.53 µM,0.823
same,relative viability,H3255; first compound 8 µM,0.862
same,relative viability,UMC-11; first compound 0.253 µM,0.441
same,relative viability,UMC-11; first compound 0.8 µM,0.378
same,relative viability,UMC-11; first compound 2.53 µM,0.428
same,relative viability,UMC-11; first compound 8 µM,0.381
same,relative viability,NCI-H1915; first compound 0.253 µM,0.478
same,relative viability,NCI-H1915; first compound 0.8 µM,0.482
same,relative viability,NCI-H1915; first compound 2.53 µM,0.601
same,relative viability,NCI-H1915; first compound 8 µM,0.445
same,relative viability,NCI-H1755; first compound 0.253 µM,0.78
same,relative viability,NCI-H1755; first compound 0.8 µM,0.649
same,relative viability,NCI-H1755; first compound 2.53 µM,0.728
same,relative viability,NCI-H1755; first compound 8 µM,0.593
same,relative viability,HCC-827; first compound 0.253 µM,1.04
same,relative viability,HCC-827; first compound 0.8 µM,0.763
same,relative viability,HCC-827; first compound 2.53 µM,0.985
same,relative viability,HCC-827; first compound 8 µM,1.06
same,relative viability,NCI-H3122; first compound 0.253 µM,0.723
same,relative viability,NCI-H3122; first compound 0.8 µM,1.05
same,relative viability,NCI-H3122; first compound 2.53 µM,0.95
same,relative viability,NCI-H3122; first compound 8 µM,0.966
same,relative viability,EMC-BAC-2; first compound 0.253 µM,0.74
same,relative viability,EMC-BAC-2; first compound 0.8 µM,0.42
same,relative viability,EMC-BAC-2; first compound 2.53 µM,0.446
same,relative viability,EMC-BAC-2; first compound 8 µM,0.335
same,relative viability,NCI-H520; first compound 0.253 µM,0.738
same,relative viability,NCI-H520; first compound 0.8 µM,0.74
same,relative viability,NCI-H520; first compound 2.53 µM,0.731
same,relative viability,NCI-H520; first compound 8 µM,0.698
same,relative viability,EKVX; first compound 0.253 µM,0.765
same,relative viability,EKVX; first compound 0.8 µM,0.668
same,relative viability,EKVX; first compound 2.53 µM,0.954
same,relative viability,EKVX; first compound 8 µM,0.636
same,relative viability,NCI-H2405; first compound 0.253 µM,1.12
same,relative viability,NCI-H2405; first compound 0.8 µM,0.934
same,relative viability,NCI-H2405; first compound 2.53 µM,1.09
same,relative viability,NCI-H2405; first compound 8 µM,0.943
same,relative viability,NCI-H661; first compound 0.253 µM,0.737
same,relative viability,NCI-H661; first compound 0.8 µM,0.828
same,relative viability,NCI-H661; first compound 2.53 µM,0.893
same,relative viability,NCI-H661; first compound 8 µM,0.848
same,relative viability,HCC-15; first compound 0.253 µM,0.826
same,relative viability,HCC-15; first compound 0.8 µM,0.855
same,relative viability,HCC-15; first compound 2.53 µM,0.917
same,relative viability,HCC-15; first compound 8 µM,0.795
same,relative viability,LC-2-ad; first compound 0.253 µM,0.733
same,relative viability,LC-2-ad; first compound 0.8 µM,0.643
same,relative viability,LC-2-ad; first compound 2.53 µM,0.718
same,relative viability,LC-2-ad; first compound 8 µM,0.735
same,relative viability,HARA; first compound 0.253 µM,0.61
same,relative viability,HARA; first compound 2.53 µM,0.628
same,relative viability,HARA; first compound 8 µM,0.512
same,relative viability,LCLC-97TM1; first compound 0.253 µM,0.586
same,relative viability,LCLC-97TM1; first compound 0.8 µM,0.581
same,relative viability,LCLC-97TM1; first compound 2.53 µM,0.901
same,relative viability,LCLC-97TM1; first compound 8 µM,0.507
